Tests used:
in vitro = details: human
rgRSV224 virus = assay: microbe, parasite or virus in culture; format: cell-based; details: human respiratory syncytial virus, 72 h; rgRSV224 virus (MOI=1), HeLa cells, GFP expression three days post-virus exposure; averaged data of several repeat experiments; read-out: RSV HELA EC50

Row | SMILES | CC50 at 3 days (in vitro) [µM] | EC50 (rgRSV224 virus) [nM]
1 | C[C@@H]1c2ccccc2CCN1C(=O)c1cn2cc(-c3ccc(NC(=O)N4CC[C@@H](O)C4)cc3F)nc2c(C2CC2)n1 [Compound 47, (R)-N-(4-(8-cyclopropyl-6-((R)-1-methyl-1,2,3,4-tetrahydroisoquinoline-2-carbonyl)imidazo[1,2-a]pyrazin-2-yl)-3-fluorophenyl)-3-hydroxypyrrolidine-1-carboxamide] | > 100 | 2770
2 | C[C@@H]1c2ccccc2CCN1C(=O)c1cc(C2CC2)c2nc(-c3ccc(C4C[C@@H]4C(=O)NS(C)(=O)=O)cc3F)cn2c1 (relative stereo) [Compound 8, Trans 2-(4-{8-Cyclopropyl-6-[(1R)-1-methyl-1,2,3,4-tetrahydroisoquinoline-2-carbonyl]imidazo[1,2-a]pyridin-2-yl}-3-fluorophenyl)-N-methanesulfonylcyclopropane-1-carboxamide] | 69.1 | 793
3 | C[C@@H]1c2ccccc2CCN1C(=O)c1cc(C2CC2)c2nc(-c3ccc(N)cc3F)cn2c1 [Compound 3, 4-{8-Cyclopropyl-6-[(1R)-1-methyl-1,2,3,4-tetrahydroisoquinoline-2-carbonyl]imidazo[1,2-a]pyridin-2-yl}-3-fluoroaniline] | 68 | 54
4 | C[C@@H]1c2ccsc2CCN1C(=O)c1cc(C2CC2)c2nc(-c3ccc(N4CC[C@H](C(N)=O)C4)nc3F)cn2c1 (single isomer, unassigned) [Compound 23, (3S)-1-(5-{8-cyclopropyl-6-[(4*R)-4-methyl-4,5,6,7-tetrahydrothieno[3,2-c]pyridine-5-carbonyl]imidazo[1,2-a]pyridin-2-yl}-6-fluoropyridin-2-yl)pyrrolidine-3-carboxamide] | 34.7 | 180
5 | C[C@@H]1c2ccccc2CCN1C(=O)c1cc(C2CC2)c2nc(-c3ccc(C4C[C@@H]4C(=O)O)cc3F)cn2c1 (relative stereo) [Compound 6, Trans 2-(4-{8-Cyclopropyl-6-[(1R)-1-methyl-1,2,3,4-tetrahydroisoquinoline-2-carbonyl]imidazo[1,2-a]pyridin-2-yl}-3-fluorophenyl)cyclopropane-1-carboxylic acid] | 56.2 | 103
6 | C[C@@H]1c2ccccc2CCN1C(=O)c1cc(C2CC2)c2nc(-c3ccc(N4CC[C@H](O)C4)cc3F)cn2c1 [Compound 12, (3S)-1-(4-{8-Cyclopropyl-6-[(1R)-1-methyl-1,2,3,4-tetrahydroisoquinoline-2-carbonyl]imidazo[1,2-a]pyridin-2-yl}-3-fluorophenyl)pyrrolidin-3-ol] | 67.7 | 169
7 | CCc1cc(C(=O)N2CCc3ccccc3[C@H]2C)nn2cc(-c3ccc4c(c3F)C=C(C(N)=O)CO4)nc12 [Compound 45, (R)-6-(8-ethyl-6-(1-methyl-1,2,3,4-tetrahydroisoquinoline-2-carbonyl)imidazo[1,2-b]pyridazin-2-yl)-5-fluoro-2H-chromene-3-carboxamide] | > 100 | 105
8 | C[C@@H]1c2ccccc2CCN1C(=O)c1cc(C2CC2)c2nc(-c3ccc(NC(=O)N4CC[C@@H](O)C4)cc3F)cn2n1 [Compound 37, (R)-N-(4-(8-cyclopropyl-6-((R)-1-methyl-1,2,3,4-tetrahydroisoquinoline-2-carbonyl)imidazo[1,2-b]pyridazin-2-yl)-3-fluorophenyl)-3-hydroxypyrrolidine-1-carboxamide] | 32.2 | –
9 | CCc1cc(C(=O)N2CCc3ccccc3[C@H]2C)nn2cc(-c3ccc(NC(=O)N4CC[C@@H](O)C4)cc3F)nc12 [Compound 39, (R)-N-(4-(8-ethyl-6-((R)-1-methyl-1,2,3,4-tetrahydroisoquinoline-2-carbonyl)imidazo[1,2-b]pyridazin-2-yl)-3-fluorophenyl)-3-hydroxypyrrolidine-1-carboxamide] | 29.3 | –

From US20220033396A1, “FURTHER HETEROAROMATIC COMPOUNDS HAVING ACTIVITY AGAINST RSV” (priority 2018, published 2022)
